Source: patent US20090232750A1, “Compositions for indoor tanning” (priority 2008, published 2009)

How the values were obtained:
melanocytes [1] = assay: Effect of D-ribose on melanocytes in vivo: four concentrations in commercial lotion on inside forearm; settings: for Days to maximum tan / Days to first sign of tanning: twice a day, inside forearm; for Days to first sign of tanning: no sun light; for Spread of tanned area beyond the application site: two inch application area
Description: To determine the effect of D-ribose on melanocytes, the dermal cells that produce a tanning color when exposed to sunlight, four concentrations of D-ribose suspended in a commercial lotion were applied with a cotton applicator twice a day to two inch areas of A subject's inside forearm. The test area was not exposed to sun light. The composition of the lotion was: water, glycerin, mineral oil, stearic acid, glycol stearate, stearamide AMP, petrolatum, dimethicone, chamomile, helianthus, sambucas, theobroma, seed butter, glyceryl, stearate, cetyl alcohol, triethanolamine, acetylated lanolin alcohol and cetyl acetate. The results are shown in Table I. Application was stopped after 11 days. Color began to fade at 14 days in all cases and was gone about two weeks after last application. […] The color spread, presumably because of lateral diffusion of the D-ribose within the dermis, stimulating melanocytes outside the application site. The spread area decreased in intensity of color as the diffused D-ribose decreased in concentration.

melanocytes [2] = assay: 4% D-ribose lotion on back of forearm, applied one to four days (melanocyte stimulation vs Maillard reaction); assay type: in vivo
Description: In order to ascertain that the tan color was due to the stimulation of melanocytes and not to a chemical reaction such as the Maillard reaction, the subject applied 4% D-ribose in the above referenced lotion to the back of the forearm. The lotion was applied one day only; two days; three days; and four days. […] By one week after application, the areas to which lotion was applied for one or two days began fading and were completely faded by ten days. The areas to which was applied for three or four days also began fading at one week after application and were completely faded by ten days after last application. The subject had areas of vitilago, a scar and freckles.

skin (tanning) = assay: D-ribose lotion tested against commercial tanning creams on upper front thigh; assay type: in vivo
Protocol: In other experiments, D-ribose was tested against Jergen's Dark Tanning cream on the upper front thigh of the subject. Each was applied liberally over a six inch by four inch area twice a day for five days. The “tanning” agent in this cream is unknown. The areas on which the Jergen's was applied tanned in 36 hours, hit maximum darkness in two days and faded in eight days. […] In this test, the D-ribose caused maximum darkness in five days and persisted for two weeks after application was discontinued.
D-ribose was also tested against l'Oreal Sublime Glow as above. The active ingredients in this cream were 7.5% octinoate, octsalate 5.0%, octocrylene 3.0% and oxybenzone 6.17%. […] This color began fading within two days of last application and was completely faded within a week.
The evenness of the D-ribose tanned areas can be attributed to the natural production of melanin due to the stimulation by D-ribose penetrating and diffusing to the dermal cells.

skin = assay: Preliminary experiments: D-ribose without penetrant applied to wound or skin; assay type: in vivo
Description: Since the object of this invention is to deliver active ingredient to the basal and dermal cells below the epidermis, when the skin barrier is intact, it has been found necessary to include a penetrant in the solutions, lotions or creams of this invention. Such a penetrant will enhance the delivery of active ingredient by transitory disruption of the cell to cell connections of the skin. Penetrants in general include ionic detergents, non-ionic detergents, fatty acids, organic solvents and oils. Certain constructs such as liposomes and nanoparticles can also be used to transport active ingredient through the stratum corneum barrier. It is well known in the industry to select a penetrant with the desired characteristics, which vary in effect from the intense penetration of the solvent dimethyl sulfoxide (DMSO) which cause the rapid co-transport past the skin barrier of any agent present on the skin, to the milder action of dilute ethanol. Of recent interest are the constructs termed liposomes and nanoparticles, which are molecules that form closed structures that can incorporate an active ingredient. Liposomes and nanoparticles can readily penetrate otherwise impermeable barriers.
The skin is a barrier. […]

[3] = tested on: fibroblasts in the basal layer; settings: cited from earlier work
[4] = tested on: cultured normal human fibroblasts; settings: cited from earlier work
lymphocytes = settings: cell culture; U.S. Pat. No. 6,663,859; cited from earlier work
skeletal muscle ATP = settings: oral administration; U.S. Pat. Nos. 6,159,942 and 6,534,480; cited from earlier work
[5] = all cases, application stopped after 11 days
[6] = 4% D-ribose lotion applied for one or two days
[7] = 4% D-ribose lotion applied for three or four days
[8] = upper front thigh, twice a day for five days
[9] = composition containing 1% D-ribose, female volunteers

O=C[C@H](O)[C@H](O)[C@H](O)CO [D-ribose]
Days to maximum tan (melanocytes [1]; 1.0% w/v D-ribose in lotion): No tanning | Days to first sign of tanning (melanocytes [1]; 1.0% w/v D-ribose in lotion): No tanning | Color of spread area versus center of application (melanocytes [1]; 4% w/v D-ribose): diameter. The spread area is not as dark as the | Days to maximum tan (melanocytes [1]; 4% w/v D-ribose in lotion): Six | Days to first sign of tanning (melanocytes [1]; 4% w/v D-ribose in lotion): Four | Diameter of tanned area (melanocytes [1]; 4% w/v D-ribose, at six days): the tanned area is about four inches in | Spread of tanned area beyond the application site (melanocytes [1]; 4% w/v D-ribose, at six days): two inches beyond the application site, that is, | Color of tan compared with other concentration (melanocytes [1]; 6% w/v D-ribose): A little darker than the 4%, the tanned area has | Diameter of tanned area (melanocytes [1]; 6% w/v D-ribose): site, that is, the tanned area is about four inches | Days to maximum tan (melanocytes [1]; 6% w/v D-ribose in lotion): Six | Days to first sign of tanning (melanocytes [1]; 6% w/v D-ribose in lotion): Four | Spread of tanned area beyond the application site (melanocytes [1]; 6% w/v D-ribose): spread about two inches beyond the application | Color of tan compared with other concentration (melanocytes [1]; 10% w/v D-ribose): the same as for the 6%. | Diameter of tanned area (melanocytes [1]; 10% w/v D-ribose): is now about eight inches in diameter. Color is | Days to maximum tan (melanocytes [1]; 10% w/v D-ribose in lotion): Six | Days to first sign of tanning (melanocytes [1]; 10% w/v D-ribose in lotion): Four | Spread of tanned area beyond the application site (melanocytes [1]; 10% w/v D-ribose): The tanned area has spread about three inches | Day at which color began to fade (melanocytes [1]; [5]): 14 days | Time after last application until color was gone (melanocytes [1]; [5]): about two | Intensity of tan reached (melanocytes [1]; fair-skinned subject): medium intensity | Quality of tan color (melanocytes [1]; fair-skinned subject): identical to that resulting from normal sun tanning | Tanning by day three (melanocytes [2]; 4% D-ribose in lotion, back of forearm, all four areas (applied one, two, three, four days)): lightly tanned | Time after application at which areas began fading (melanocytes [2]; [6]): one | Time until completely faded (melanocytes [2]; [6]): ten | Time after application at which areas began fading (melanocytes [2]; [7]): one | Time after last application until completely faded (melanocytes [2]; [7]): ten | Tanning of areas of vitilago and scarring (melanocytes [2]; subject's areas of vitilago and a scar): did not tan | Effect on freckles (melanocytes [2]; subject's freckles): got darker | Uniformity of tanned area (skin (tanning); all experiments): uniform and not blotchy | Persistence of tan after application was discontinued (skin (tanning); [8]): two | Time to maximum darkness (skin (tanning); [8]): five | Spread of color beyond area of application (skin (tanning); upper front thigh, twice a day for five days, D-ribose at 4% in lotion): spread beyond the area of application | Effect on tanning (skin; D-ribose in water applied to the skin, no penetrant): no effect on tanning | Effect on improving skin (skin; preliminary application of ribose without penetrant): unsuccessful | Effect on face wrinkles [3, 9]: reduce face wrinkles | Tanning effect [3, 9]: No tanning effect | Melanin formation ([3]; lower amounts of D-ribose, as noted in the '707 application): do not stimulate melanin formation | Effect on fibroblasts subjected to hypoxic shock [4]: protective effect | Effect on growth of lymphocytes (lymphocytes): stimulates the growth of lymphocytes | Effect on ATP levels in skeletal muscle (skeletal muscle ATP): raises ATP levels in skeletal muscle
